Data set [1] deals with Abutilon theophrasti. Kind of data set: Foliar spraying treatment, weed killing rate. The class given is in vivo. Particulars: 504 h, read-out: herbicidal activity; for pest or weed control at 250 g/ha: foliar spray, 250 g per hectare, after 3 weeks (Table 5); for pest or weed control at 1000 g/ha: foliar spray, 1,000 g per hectare, after 3 weeks (Table 4). As for the experimental part: (§1) (1) Preparation of Test Emulsion
(§2) POA allylphenyl ether (4.1 parts by weight), POE-POP glycol (1 part by weight), POE sorbitan laurate (0.8 parts by weight), glycerin (2.6 parts by weight), dimethylformamide (65.9 parts by weight), N-methylpyrrolidone (5.1 parts by weight), cyclohexanone (15.4 parts by weight), and aromatic hydrocarbons (5.1 parts by weight) were mixed and dissolved to prepare an emulsion. The compound of the present invention (4 mg) was dissolved in this emulsion (100 μL) to prepare a test emulsion. POA means “polyoxyalkylene”, POE means “polyoxyethylene”, and POP means “polyoxypropylene”.
(§3) (2) Foliar Spraying Treatment
(§4) A 150 cm^2 pot was filled with soil, and seeds of Avena sativa, Matricaria chamomilla, Setaria faberi, Digitaria ciliaris, Abutilon theophrasti and Amaranthus retroflexus were sown into the surface layer which was covered lightly with soil. Thereafter, they were grown in a greenhouse. When each plant grew to a plant height of 2 to 4 cm, the above test emulsion was diluted so that the amount of the active ingredient became a predetermined amount, and sprayed on the foliage with a small sprayer at a spray water volume of 250 L per hectare.
(§5) After 3 weeks, above ground weights of weeds in the untreated and treated areas were measured for each weed, and the weed killing rate was calculated by the following calculation formula.
(§6) (4) Calculation Formula for Weed Killing Rate
(§7) Weed killing rate (%)=[(above ground weight of weeds in untreated area)−(above ground weight of weeds in treated area)/(above ground weight of weeds in untreated area)]×100

Data set [2] relates to Digitaria ciliaris. Description: Foliar spraying treatment, weed killing rate. The format is in vivo. Particulars: 504 h, read-out: herbicidal activity; for pest or weed control at 250 g/ha: foliar spray, 250 g per hectare, after 3 weeks (Table 13); for pest or weed control at 1000 g/ha: foliar spray, 1,000 g per hectare, after 3 weeks (Table 12). As for the experimental part:
as §1, §2, §3, §4, §5, §6, §7

Data set [3] concerns Amaranthus retroflexus. Description: Foliar spraying treatment, weed killing rate. The class given is in vivo. Particulars: 504 h, read-out: herbicidal activity; for pest or weed control at 250 g/ha: foliar spray, 250 g per hectare, after 3 weeks (Table 15); for pest or weed control at 1000 g/ha: foliar spray, 1,000 g per hectare, after 3 weeks (Table 14). As for the experimental part:
as §1, §2, §3, §4, §5, §6, §7

The subject of data set [4] is Setaria faberi. Description: Foliar spraying treatment, weed killing rate. The format is in vivo. Particulars: 504 h, read-out: herbicidal activity; for pest or weed control at 250 g/ha: foliar spray, 250 g per hectare, after 3 weeks (Table 11); for pest or weed control at 1000 g/ha: foliar spray, 1,000 g per hectare, after 3 weeks (Table 10). The procedure:
as §1, §2, §3, §4, §5, §6, §7

Data set [5] deals with Matricaria chamomilla. Description: Foliar spraying treatment, weed killing rate. Particulars: 504 h, read-out: herbicidal activity; for pest or weed control at 250 g/ha: foliar spray, 250 g per hectare, after 3 weeks (Table 7); for pest or weed control at 1000 g/ha: foliar spray, 1,000 g per hectare, after 3 weeks (Table 6). The class given is in vivo. The procedure: as §1, §2, §3, §4, §5, §6, §7

A word on the melting point: it is the temperature of the solid-liquid transition.

For `COC12OC1(c1ccc(C(F)(F)F)c(S(C)(=O)=Nc3ccc(Cl)cc3)c1C)C=NN(C)C2=O` (centres unmarked) [Compound B-15], the pest or weed control at 250 g/ha in data set [1], in data set [2], in data set [3], in data set [4] and in data set [5] was at least 80% each time.
Compound `COC12OC1(c1ccc(C(F)(F)F)c3c1CCCO3)C=NN(C)C2=O` (centres unmarked) [Compound B-8] showed a melting point of 153 to 155 °C. Moreover, the pest or weed control at 1000 g/ha in data set [1] was at least 80%. In data set [3], the pest or weed control at 250 g/ha is at least 80% and the pest or weed control at 1000 g/ha is at least 80%.
Take `COC12OC1(c1ccc(C(F)(F)F)c3c1CCCCS3(=O)=O)C=NN(C)C2=O` (centres unmarked) [Compound B-9]: the pest or weed control at 250 g/ha in data set [1], in data set [2], in data set [3], in data set [4] and in data set [5] was at least 80% in each case. In addition, the pest or weed control at 1000 g/ha in data set [1], in data set [2], in data set [3], in data set [4] and in data set [5] was at least 80% each time.
In the case of `COC12OC1(c1cc(C)c3c(c1C)C1(CCS3(=O)=O)OCCO1)C=NN(C)C2=O` (centres unmarked) [Compound B-11], the pest or weed control at 250 g/ha in data set [1], in data set [2] and in data set [3] was at least 80% throughout. Besides, the pest or weed control at 1000 g/ha in data set [1], in data set [2], in data set [3], in data set [4] and in data set [5] was at least 80% throughout.
With `COC12OC1(c1ccc3c(c1C)S(=O)(=O)CCC3(C)C)C=NN(C)C2=O` (centres unmarked) [Compound B-12], the pest or weed control at 1000 g/ha in data set [1], in data set [2], in data set [3] and in data set [5] was at least 80% in each case.
Compound `COC12OC1(c1ccc(C(F)(F)F)cc1S(C)(=O)=O)C=NN(C1CCCCO1)C2=O` (centres unmarked) [Compound B-14] returned a melting point of 65 to 66 °C. Further, in data set [2], the pest or weed control at 1000 g/ha was at least 80%. Besides, in data set [3], the pest or weed control at 250 g/ha is at least 80% and the pest or weed control at 1000 g/ha was at least 80%. In addition, the pest or weed control at 1000 g/ha in data set [4] is at least 80%.
In turn, `COC12OC1(c1ccc(C(F)(F)F)c(N=S3(=O)CCCCC3)c1Cl)C=NN(C)C2=O` (centres unmarked) [Compound B-4] showed a melting point of 158 to 161 °C. Further, the pest or weed control at 250 g/ha in data set [4] is at least 80%.
`COC12OC1(c1cc3c(cc1S(C)(=O)=O)CCC3)C=NN(C)C2=O` (centres unmarked) [Compound B-6] had a melting point of 150 to 153 °C. In addition, in data set [1], the pest or weed control at 250 g/ha is at least 80% and the pest or weed control at 1000 g/ha is at least 80%. Besides, in data set [2], the pest or weed control at 250 g/ha is at least 80% and the pest or weed control at 1000 g/ha was at least 80%. Also, in data set [3], the pest or weed control at 250 g/ha is at least 80% and the pest or weed control at 1000 g/ha is at least 80%. In data set [5], the pest or weed control at 250 g/ha is at least 80% and the pest or weed control at 1000 g/ha is at least 80%.
Compound `COC12OC1(c1cccc3c1CCCS3(=O)=O)C=NN(C)C2=O` (centres unmarked) [Compound B-7] gave a melting point of 179 to 181 °C. Also, the pest or weed control at 1000 g/ha in data set [1] was at least 80%. The pest or weed control at 1000 g/ha in data set [2] is at least 80%. The pest or weed control at 1000 g/ha in data set [3] is at least 80%. Also, the pest or weed control at 1000 g/ha in data set [4] was at least 80%. Besides, in data set [5], the pest or weed control at 250 g/ha was at least 80% and the pest or weed control at 1000 g/ha is at least 80%.
Regarding `CN1N=CC2(c3ccc(C(F)(F)F)c4c3CCCS4(=O)=O)OC2(OCCON2C(=O)c3ccccc3C2=O)C1=O` (centres unmarked) [Compound B-2], the pest or weed control at 250 g/ha in data set [1], in data set [2], in data set [3], in data set [4] and in data set [5] was at least 80% each time.
Take `COC12OC1(c1cc(F)c(C(F)(F)F)c3c1CCCS3(=O)=O)C=NN(C)C2=O` (centres unmarked) [Compound B-16]: the melting point lay within 205 to 206 °C. For the same compound, the pest or weed control at 1000 g/ha in data set [1] was at least 80%. For the same compound, the pest or weed control at 1000 g/ha in data set [2] is at least 80%. For the same compound, the pest or weed control at 1000 g/ha in data set [3] was at least 80%. In addition, in data set [4], the pest or weed control at 1000 g/ha is at least 80%. Further, the pest or weed control at 1000 g/ha in data set [5] was at least 80%.
As to `COC12OC1(c1ccc(C(F)(F)F)cc1S(C)(=O)=O)C=NN(C)C2=O` (centres unmarked) [Compound A-1, 1-methoxy-3-methyl-6-(2-(methylsulfonyl)-4-(trifluoromethyl)phenyl)-7-oxa-3,4-diazabicyclo [4.1.0] hept-4-en-2-one], the melting point was determined as 128 °C. Further, in data set [1], the pest or weed control at 250 g/ha is at least 80% and the pest or weed control at 1000 g/ha was at least 80%. In addition, in data set [2], the pest or weed control at 250 g/ha is at least 80% and the pest or weed control at 1000 g/ha was at least 80%. In data set [3], the pest or weed control at 250 g/ha was at least 80% and the pest or weed control at 1000 g/ha was at least 80%. Also, in data set [4], the pest or weed control at 250 g/ha is at least 80% and the pest or weed control at 1000 g/ha was at least 80%. In addition, in data set [5], the pest or weed control at 250 g/ha was at least 80% and the pest or weed control at 1000 g/ha was at least 80%.
In turn, `CN1N=CC2(c3ccc(C(F)(F)F)c4c3CCCS4(=O)=O)OC2(OCc2ccn(CC(F)(F)F)n2)C1=O` (centres unmarked) [Compound B-3] returned a melting point of 112 to 117 °C. Further, the pest or weed control at 250 g/ha in data set [1] is at least 80%. For the same compound, the pest or weed control at 250 g/ha in data set [3] is at least 80%. For the same compound, in data set [4], the pest or weed control at 250 g/ha was at least 80%.
`COC12OC1(c1ccc(C(F)(F)F)c3c1S(=O)(=O)CCC3)C=NN(C)C2=O` (centres unmarked) [Compound B-5]: the melting point lay in the range of 132 to 134 °C. Further, the pest or weed control at 250 g/ha in data set [1] was at least 80%. Also, the pest or weed control at 250 g/ha in data set [2] is at least 80%. Moreover, in data set [3], the pest or weed control at 250 g/ha was at least 80%. Moreover, the pest or weed control at 250 g/ha in data set [4] is at least 80%. In addition, in data set [5], the pest or weed control at 250 g/ha is at least 80%.
For the compound `COC12OC1(c1ccc(C(F)(F)F)c3c1OCCS3(=O)=O)C=NN(C)C2=O` (centres unmarked) [Compound B-13], the pest or weed control at 250 g/ha in data set [1], in data set [3] and in data set [5] was at least 80% throughout. The pest or weed control at 1000 g/ha in data set [1], in data set [2], in data set [3] and in data set [5] was at least 80% throughout.
Take `COC12OC1(c1ccc(C(F)(F)F)c3c1CCS3(=O)=O)C=NN(C)C2=O` (centres unmarked) [Compound B-10]: the melting point fell in the range of 172 to 177 °C. For the same compound, in data set [1], the pest or weed control at 250 g/ha is at least 80% and the pest or weed control at 1000 g/ha is at least 80%. In data set [3], the pest or weed control at 250 g/ha is at least 80% and the pest or weed control at 1000 g/ha was at least 80%. Further, in data set [5], the pest or weed control at 250 g/ha is at least 80% and the pest or weed control at 1000 g/ha was at least 80%.
For `COC12OC1(c1ccc(C(F)(F)F)c3c1CCCS3(=O)=O)C=NN(C)C2=O` (centres unmarked) [Compound B-1, 1-methoxy-3-methyl-6-(1,1-dioxido-8-(trifluoromethyl)thiochroman-5-yl)-7-oxa-3,4-diazabicyclo [4.1.0] hept-4-en-2-one], the pest or weed control at 250 g/ha in data set [1], in data set [2], in data set [3], in data set [4] and in data set [5] was at least 80% each time. The pest or weed control at 1000 g/ha in data set [1], in data set [2], in data set [3], in data set [4] and in data set [5] was at least 80% each time.

The values above are taken from patent publication US20220289758A1, “7-OXA-3,4-DIAZABICYCLO [4.1.0] HEPT-4-EN-2-ONE COMPOUND AND HERBICIDE” (Nippon Soda Co., Ltd., priority 2019, published 2022).
